Experimental data from PubChem BioAssay AID330 (DTP/NCI, 2004).
Several values for one entry are separate records, joined by “and”; a condition that tells them apart may be missing. Identical values can stand only once. Toxic doses and inconclusive results are not listed. Square brackets hold non-standard residues; d marks the D form. Peptide text beside a SMILES is read from it. * marks the point of attachment. ξ: configuration not given here. Cbz = O=C(OCc1ccccc1)*; Boc = CC(C)(C)OC(=O)*; ξNva = CCCC(N)C(=O)O; NHNH2 = NN*

Tested on: P388 leukemia ip, CD2F1 mice, survival T/C
Assay: NCI In Vivo Anticancer Drug Screen. Data for tumor model P388 Leukemia (intraperitoneal) in CD2F1 (CDF1) mice
Conditions: endpoint: median survival time, higher = longer survival
How it was run: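 Mice carrying the transplanted tumor received test compound or vehicle. Survival was recorded in each group, and the value is the treated-group measurement divided by that of the vehicle-treated control group.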

[1] = dose: 60.0 mg/kg/injection, schedule: Q01DX005 (ip), vehicle: saline with Tween-80
[2] = dose: 120.0 mg/kg/injection, schedule: Q01DX005 (ip), vehicle: saline with Tween-80
[3] = dose: 240.0 mg/kg/injection, schedule: Q01DX005 (ip), vehicle: saline with Tween-80
[4] = dose: 6.25 mg/kg/injection, schedule: Q01DX009 (ip), vehicle: Klucel (hydroxypropylcellulose) (HPC)
[5] = dose: 12.5 mg/kg/injection, schedule: Q01DX009 (ip), vehicle: Klucel (hydroxypropylcellulose) (HPC)
[6] = dose: 50.0 mg/kg/injection, schedule: Q01DX005 (ip), vehicle: saline with Tween-80
[7] = dose: 100.0 mg/kg/injection, schedule: Q01DX005 (ip), vehicle: saline with Tween-80
[8] = dose: 200.0 mg/kg/injection, schedule: Q01DX005 (ip), vehicle: saline with Tween-80
[9] = dose: 50.0 mg/kg/injection, schedule: Q01DX009 (ip), vehicle: saline
[10] = dose: 100.0 mg/kg/injection, schedule: Q01DX009 (ip), vehicle: saline
[11] = dose: 200.0 mg/kg/injection, schedule: Q01DX009 (ip), vehicle: saline

C[C@@H]1CC=C[C@@H](NC(=O)OCc2ccccc2)[C@H]1C=O
T/C [1]: 103 % of control | T/C [2]: 99 % of control | T/C [3]: 98 % of control

CC(=O)N1CCCC2=C1CCCCC2
T/C (dose: 100.0 mg/kg/injection, schedule: Q04DX003 (ip), vehicle: saline): 92 % of control | T/C (dose: 200.0 mg/kg/injection, schedule: Q04DX003 (ip), vehicle: saline): 100 % of control | T/C (dose: 400.0 mg/kg/injection, schedule: Q04DX003 (ip), vehicle: saline): 101 % of control

CC1=[N+]([O-])[N+]([O-])=C(C)C1=O
T/C [4]: 91 % of control | T/C [5]: 100 % of control

COc1cccc2c1C(=O)c1c(O)c3c(c(O)c1C2=O)C[C@@](O)(C(O)O)C[C@@H]3OC1CC(N)C(O)C(C)O1 (some centres undefined)
T/C (dose: 2.0 mg/kg/injection, schedule: Q01DX009 (ip), vehicle: water): 168 % of control | T/C (dose: 4.0 mg/kg/injection, schedule: Q01DX009 (ip), vehicle: water): 154 % of control | T/C (dose: 100.0 mg/kg/injection, schedule: Q04DX003 (ip), vehicle: water): 109 % of control and 121 % of control

CCCCS(=O)(=O)CCC(N)C(=O)O (centres undefined)
T/C [1]: 94 % of control | T/C [2]: 90 % of control

CC(NC(=O)C(Cc1c[nH]c2ccccc12)NC(=O)OC(C)(C)C)C(=O)NN (stereo not drawn) (Boc-Trp-Ala-NHNH2; configuration not given here)
T/C (dose: 12.5 mg/kg/injection, schedule: Q01DX009 (ip), vehicle: other): 98 % of control | T/C (dose: 25.0 mg/kg/injection, schedule: Q01DX009 (ip), vehicle: other): 100 % of control | T/C (dose: 50.0 mg/kg/injection, schedule: Q01DX009 (ip), vehicle: other): 105 % of control | T/C (dose: 100.0 mg/kg/injection, schedule: Q01DX009 (ip), vehicle: other): 109 % of control | T/C (dose: 200.0 mg/kg/injection, schedule: Q01DX009 (ip), vehicle: other): 119 % of control

C/C=C1/CC2C=Nc3cc(O)c(OC)cc3C(=O)N2C1 (centres undefined)
T/C (dose: 1.0 mg/kg/injection, schedule: Q01DX005 (ip), vehicle: saline + alcohol): 157 % of control | T/C (dose: 50.0 micrograms/kg/injection, schedule: Q01DX005 (ip), vehicle: saline + alcohol): 98 % of control | T/C (dose: 100.0 micrograms/kg/injection, schedule: Q01DX005 (ip), vehicle: saline + alcohol): 110 % of control | T/C (dose: 200.0 micrograms/kg/injection, schedule: Q01DX005 (ip), vehicle: saline + alcohol): 116 % of control | T/C (dose: 400.0 micrograms/kg/injection, schedule: Q01DX005 (ip), vehicle: saline + alcohol): 120 % of control

Cc1ccc(NC(=O)c2cc3ccccc3cc2O)c(C)c1.Cc1ccc(NC(=O)c2cc3ccccc3cc2[O-])c(C)c1.[Ni+2]
T/C (dose: 1.56 mg/kg/injection, schedule: Q01DX009 (ip), vehicle: saline with Tween-80): 109 % of control | T/C (dose: 3.12 mg/kg/injection, schedule: Q01DX009 (ip), vehicle: saline with Tween-80): 89 % of control | T/C (dose: 6.12 mg/kg/injection, schedule: Q01DX009 (ip), vehicle: saline with Tween-80): 97 % of control | T/C (dose: 6.25 mg/kg/injection, schedule: Q01DX009 (ip), vehicle: saline): 108 % of control

CCCCCNC(=O)OCc1c(COC(=O)NCCCCC)c(-c2ccc(Cl)c(Cl)c2)n2c1CCC2
T/C (dose: 6.25 mg/kg/injection, schedule: Q01DX009 (ip), vehicle: distilled water + Tween-80): 113 % of control | T/C (dose: 12.5 mg/kg/injection, schedule: Q01DX009 (ip), vehicle: distilled water + Tween-80): 101 % of control and 110 % of control | T/C (dose: 25.0 mg/kg/injection, schedule: Q01DX009 (ip), vehicle: distilled water + Tween-80): 108 % of control and 116 % of control | T/C (dose: 100.0 mg/kg/injection, schedule: Q01DX009 (ip), vehicle: distilled water + Tween-80): 165 % of control

Cc1cnc2cc(Cl)ccc2c1SCC(=O)O
T/C [6]: 104 % of control | T/C [7]: 108 % of control | T/C [8]: 108 % of control

COc1ccc(-c2nn(C)c3c2C(=O)CCC3)cc1OC
T/C (dose: 100.0 mg/kg/injection, schedule: Q04DX003 (ip), vehicle: Klucel (hydroxypropylcellulose) (HPC)): 94 % of control | T/C (dose: 200.0 mg/kg/injection, schedule: Q04DX003 (ip), vehicle: Klucel (hydroxypropylcellulose) (HPC)): 99 % of control

OCC1OC2OC3C(CO)OC(OC4C(CO)OC(OC5C(CO)OC(OC6C(CO)OC(OC7C(CO)OC(OC8C(CO)OC(OC1C(O)C2O)C(O)C8O)C(O)C7O)C(O)C6O)C(O)C5O)C(O)C4O)C(O)C3O (centres undefined)
T/C [9]: 100 % of control | T/C [10]: 94 % of control

Cc1nc(O)c(-c2ccc(Cl)cc2)c(=O)[nH]1
T/C [1]: 102 % of control | T/C [2]: 109 % of control

COc1ccc(S(=O)(=O)N/N=C\c2cc([N+](=O)[O-])cc([N+](=O)[O-])c2O)c(OC)c1OC
T/C [6]: 102 % of control | T/C [7]: 107 % of control | T/C [8]: 99 % of control

COc1cc2c(c(OC)c1OC)-c1ccc(NCc3ccccc3)c(=O)cc1[C@@H](NC(C)=O)CC2
T/C (dose: 0.78 mg/kg/injection, schedule: Q01DX009 (ip), vehicle: Klucel (hydroxypropylcellulose) (HPC)): 103 % of control and 104 % of control and 105 % of control | T/C (dose: 1.56 mg/kg/injection, schedule: Q01DX009 (ip), vehicle: Klucel (hydroxypropylcellulose) (HPC)): 98 % of control and 101 % of control and 104 % of control | T/C (dose: 3.12 mg/kg/injection, schedule: Q01DX009 (ip), vehicle: Klucel (hydroxypropylcellulose) (HPC)): 105 % of control and 106 % of control and 117 % of control | T/C [4]: 117 % of control | T/C [5]: 98 % of control and 117 % of control

Cc1cc(C(=O)NN)c(C#N)c(=O)[nH]1
T/C [10]: 100 % of control | T/C [11]: 109 % of control | T/C (dose: 400.0 mg/kg/injection, schedule: Q01DX009 (ip), vehicle: saline): 90 % of control

O=C(O)C(C1CC(Cl)=NO1)N1C(=O)c2ccccc2C1=O (centres undefined)
T/C (dose: 6.2 mg/kg/injection, schedule: Q04DX003 (ip), vehicle: other): 101 % of control | T/C (dose: 12.5 mg/kg/injection, schedule: Q04DX003 (ip), vehicle: other): 100 % of control | T/C (dose: 25.0 mg/kg/injection, schedule: Q04DX003 (ip), vehicle: other): 105 % of control | T/C (dose: 50.0 mg/kg/injection, schedule: Q04DX003 (ip), vehicle: other): 99 % of control | T/C (dose: 100.0 mg/kg/injection, schedule: Q04DX003 (ip), vehicle: other): 101 % of control | T/C (dose: 200.0 mg/kg/injection, schedule: Q04DX003 (ip), vehicle: other): 99 % of control

COc1cc(CCNC(=O)CCN2C(=O)CCC2=O)cc(OC)c1OC
T/C [9]: 104 % of control | T/C [10]: 100 % of control | T/C [11]: 103 % of control

CC1CC[N-]CC1.CC1CC[N-]CC1.CC1CC[N-]CC1.CC1CC[N-]CC1.[Cl][Rh][Cl]
T/C (dose: 25.0 mg/kg/injection, schedule: Q01DX009 (ip), vehicle: saline with Tween-80): 104 % of control | T/C (dose: 50.0 mg/kg/injection, schedule: Q01DX009 (ip), vehicle: saline with Tween-80): 104 % of control

CC(C)OSc1ccccc1
T/C (dose: 12.5 mg/kg/injection, schedule: Q01DX001 (ip), vehicle: Klucel (hydroxypropylcellulose) (HPC)): 113 % of control | T/C (dose: 25.0 mg/kg/injection, schedule: Q01DX001 (ip), vehicle: Klucel (hydroxypropylcellulose) (HPC)): 113 % of control | T/C (dose: 50.0 mg/kg/injection, schedule: Q01DX001 (ip), vehicle: Klucel (hydroxypropylcellulose) (HPC)): 102 % of control | T/C (dose: 100.0 mg/kg/injection, schedule: Q01DX001 (ip), vehicle: Klucel (hydroxypropylcellulose) (HPC)): 103 % of control and 107 % of control and 97 % of control

COc1cccc(C2SCC(=O)N2c2nncs2)c1OC (centres undefined)
T/C (dose: 60.0 mg/kg/injection, schedule: Q01DX005 (ip), vehicle: Klucel (hydroxypropylcellulose) (HPC)): 106 % of control | T/C (dose: 120.0 mg/kg/injection, schedule: Q01DX005 (ip), vehicle: Klucel (hydroxypropylcellulose) (HPC)): 95 % of control | T/C (dose: 240.0 mg/kg/injection, schedule: Q01DX005 (ip), vehicle: Klucel (hydroxypropylcellulose) (HPC)): 98 % of control

Nc1nc(N)c(N=O)c(N)n1
T/C (dose: 44.0 mg/kg/injection, schedule: Q01DX009 (ip), vehicle: saline): 104 % of control | T/C (dose: 66.0 mg/kg/injection, schedule: Q01DX009 (ip), vehicle: saline): 104 % of control | T/C [10]: 104 % of control | T/C (dose: 150.0 mg/kg/injection, schedule: Q01DX009 (ip), vehicle: saline): 102 % of control

Cc1cccc(-c2nnc(N)o2)c1[N+](=O)[O-]
T/C [1]: 108 % of control | T/C [2]: 108 % of control | T/C [3]: 101 % of control

CCCC(NC(=O)OCc1ccccc1)C(=O)NCC(=O)NCC(=O)OC (stereo not drawn) (Cbz-[ξNva]-Gly-Gly-OMe)
T/C (dose: 50.0 mg/kg/injection, schedule: Q01DX005 (ip), vehicle: Klucel (hydroxypropylcellulose) (HPC)): 110 % of control | T/C (dose: 100.0 mg/kg/injection, schedule: Q01DX005 (ip), vehicle: Klucel (hydroxypropylcellulose) (HPC)): 113 % of control | T/C (dose: 200.0 mg/kg/injection, schedule: Q01DX005 (ip), vehicle: Klucel (hydroxypropylcellulose) (HPC)): 113 % of control
